Structures can show the parent of a compound that is named as a salt.
Columns and labels:
[1] = biological target: T1, human vitronectin receptor (αv β3) (Homo sapiens, UniProt P05106+P06756); experiment: Solid Phase Receptor Assay: purified vitronectin receptor (αv β3), competition with biotinylated vitronectin; type: binding; conditions: 1 nM biotinylated vitronectin, read-out: VnR/IC50
T1 construct: Human vitronectin receptor(αv β3) was purified from human placenta; from tissue; host or cells: human placenta
Procedure: Human vitronectin receptor(αv β3) was purified from human placenta as previously described [Pytela et al., Methods in Enzymology, 144:475-489 (1987)]. Human vitronectin was purified from fresh frozen plasma as previously described [Yatohgo et al., Cell Structure and Function, 13:281-292 (1988)]. Biotinylated human vitronectin was prepared by coupling NHS-biotin from Pierce Chemical Company (Rockford, Ill.) to purified vitronectin as previously described [Charo et al., J. Biol. Chem., 266(3):1415-1421 (1991)]. Assay buffer, OPD substrate tablets, and RIA grade BSA were obtained from Sigma (St. Louis, Mo.). Anti-biotin antibody was obtained from Calbiochem (La Jolla, Calif.). GRGDSP peptide was purchased from Bachem (Torrance, Calif.). Linbro microtiter plates were obtained from Flow Labs (McLean, Va.). ADP reagent was obtained from Sigma (St. Louis, Mo.).
Solid Phase Receptor Assays
This assay was essentially the same as previously reported [Niiya et al., Blood, 70:475-483 (1987)]. […] The plate was read with a microtiter plate reader at a wavelength of 450 nm and when the maximum-binding control wells reached an absorbance of about 1.0, the final A450 were recorded for analysis. The data were analyzed using a macro written for use with the EXCEL™ spreadsheet program. The mean, standard deviation, and %CV were determined for duplicate concentrations. […]

[2] = tested on: M21 human melanoma cells (αv β3-dependent adhesion); experiment: M21 Melanoma Cell Adhesion Assay: αv β3-dependent adhesion to human fibrinogen; type: cell-based; conditions: 0.5 h, 200 μM Mn++, 30 minutes, 37° C.
Procedure: M21 Melanoma Cell Adhesion Assasy
This assay involves an αv β3 -dependent adhesion of M21 human melanoma cells to human fibrinogen-coated plastic tissue culture dishes.
Fibrinogen was purified from human plasma. Fibronectin and plasminogen were eliminated from the preparation by passing the sample over gelatin-sepharose 4B and lysine-sepharose 4B resins, respectively. The fibrinogen is diluted to 10 μg/mL in coating buffer (20 mM Tris-HCl, 150 mM NaCl, pH 7.4). 100 μL of diluted fibrinogen is added to each well of a 96-well Immulon 2 microtiter plate (Dynatech; Chantilly, Va.) and allowed to coat overnight at 4° C. […]
M21 human melanoma cells were provided by Dr. J. Smith, La Jolla Cancer Research Institute. […] Cells are counted and suspended to a density of 2×10^6 /mL in adhesion assay buffer containing 200 μM Mn^++. […]
Following adhesion, plates are gently washed 3 times with 200 μL of wash buffer (50 mM Tris-HCl, 150 mM NaCl, pH 7.4) using large bore pipet tips. Plates are briefly blotted dry and 100 μL of cell lysis buffer (50 mM sodium acetate, pH 5.0, 0.5% Triton X-100, 0.3 mg/mL p-nitrophenyl phosphate [Sigma] is added to each well. Plates are incubated for 60 minutes at 37° C. and 50 μL of 1N NaOH is added to stop the reaction. The absorbance of the wells at […] is read using an automatic plate reader.

A3827 cells = experiment: Cell Adhesion Assay: adhesion of A3827 cells to fibrinogen; type: cell-based; conditions: 300 μM MnCl2, 1 hour, 37° C.
Procedure: Fibrinogen was purified from human plasma. Fibronectin and plasminogen were eliminated from the preparation by passing the sample over gelatin-sepharose 4B and lysine-sepharose 4B resins, respectively. The fibrinogen was resuspended at a concentration of 10 μg/mL in 100 mM sodium bicarbonate, pH 9.0. Immulon II (Nunc) microtiter plates were coated by incubating with 100 μL/well of fibrinogen solution overnight at 4° C. After coating with fibrinogen, plates were rinsed three times with phosphate buffered saline (PBS) and 100 μL of a 1% bovine serum albumin (BSA) solution was added to each well and stored at -20° C. until needed. A3827 cells were harvested from subconfluent 75 cm^2 culture flasks with 2 mM EDTA in PBS and resuspended at 5×10^5 cells/mL in Dulbecco's PBS without calcium or magnesium (Sigma #5652) containing 1% BSA. MnCl2 was added to a final concentration of 300 μM. Test compounds were resuspended in PBS and added to the cell suspension before serial dilution. […] Adherent cells were quantitated using a non-radioactive cell proliferation assay (Promega #G5430) using the instructions provided by the supplier. Plates were allowed to equilibrate overnight at room temperature in a humidified chamber and a Biotek EL312 microplate spectrophotometer was used to measure the difference in absorbance at […]. […]

Row | IC50 [1] [nM] | IC50 [2] [nM] | IC50 (A3827 cells) [nM] | SMILES
1 | 987 | 1410 |  | CCOC(=O)CC(NC(=O)CNC(=O)CCCNC(=N)N)c1cccnc1 (racemic) [Example 3-ethyl ester, (±) ethyl β-[[2-[[4-[(aminoiminomethyl)amino]-1-oxobutyl]amino]-1-oxoethyl]amino]-3-pyridinepropanoate]
2 | 142 |  |  | N=C(N)NCCCCC(=O)N1CCC[C@H]1C(=O)N[C@@H](CC(=O)O)c1cccnc1 [Example 2, βS-[[[1-[5-[(aminoiminomethyl)amino]-1-oxopentyl]pyrrolidin-2-yl]carbonyl]amino-3-pyridinepropanoic acid, bistrifluoroacetate salt]
3 |  | 40.4 | 30 | N=C(N)NCCCCC(=O)NCC(=O)NC(CC(=O)O)c1cccnc1 (stereo not drawn) [Example 1, β-[[2-[[5-[(aminoiminomethyl)amino]-1-oxopentyl]amino]-1-oxoethyl]amino]-3-pyridinepropanoic acid, bistrifluoroacetate salt]
